One experiment is filed under the species Homo sapiens. As to the kind of experiment: Inhibition of amyloid beta (17 to 42) (unknown origin) aggregation at 10 uM by thioflavin T-based fluorimetric assay.
Experiment [1] is described as follows: Inhibition of Tg2576 mouse amyloid beta40 aggregation measured after 3 days by ELISA. For orientation: In an ELISA, binding on a coated surface is turned into a signal by an enzyme label.

The text below walks through data of ChEMBL document CHEMBL3872251, “Computational approach for the assessment of inhibitory potency against beta-amyloid aggregation” (Bioorg Med Chem Lett, 2017).

In the case of `c1ccc(CN2CCC(NCCCCCCn3ccc4ccccc43)CC2)cc1`, in the experiment filed under Homo sapiens, the inhibition (usually the change of the read-out against control, counted positive when it falls) turned out to be 56%. Consider `COc1cc(/C=C/C(=O)CC(=O)/C=C/c2ccc(O)c(OC)c2)ccc1O` [CURCUMIN], for which half-maximal inhibition in experiment [1] (IC50) required 1000 nM. With `O=C1c2ccccc2C(=O)N1CCCNC1CCN(Cc2ccccc2)CC1`, the inhibition in the experiment listed under Homo sapiens worked out at 10%. Molecule `CCN(CC)CCCCCCN1C(=O)c2ccccc2C1=O` gave an inhibition in the experiment filed under Homo sapiens of 0%.

In the experiment filed under Homo sapiens, `O=C1c2ccccc2C(=O)N1CCCCCNCc1ccccc1` registered an inhibition of 10%. The same measure, in the same setting: next, `CCN(CC)CCCCCCCN1C(=O)c2ccccc2C1=O`: 39.4%.
